Entries after “also recorded” stand apart in the source; their conditions may differ.
What was measured:
[1] = SPAAC reaction kinetics of 101 with N-azidoacetylmannosamine monitored by 1H-NMR; type: physicochemical; settings: 20 mM, CD3OD-D2O (5:1, v/v), 25° C.
Description: To evaluate the feasibility of compound 101 as a reagent for the SPAAC-based fluorescence labeling, its reaction scope and kinetics using benzyl azide as a model substrate was first studied. The SPAAC reaction of 101 with benzyl azide in acetonitrile was completed in 2 h at room temperature to give triazole 111 in 95% yield (Scheme 100). The reactivity of 101 with benzyl azide (1:1) in CD3CN was determined by integration of multiple chemical shifts in the ^1H-NMR spectrum to yield a second-order rate constant of 0.012 M^−1s^−1 at 25° C. […]
Part B: Compound 101 and N-azidoacetylmannosamine were predissolved in CD3OD/D2O (5:1, v/v), and then mixed at equimolar concentration of 20 mM. The reaction was monitored by ^1H-NMR analysis over a period of 1 h. The concentration of each component was determined, based on the concentration of initial compound 101, by integration at multiple chemical shifts in the ^1H-NMR spectrum. […] (M^−1) vs. time (sec), a second order rate constant in unit of M^−1s^−1 was determined using linear regression analysis. […]
FIG. 18 describes a Plot of 1/[101] vs. time for the reaction of compound 101 and N-azidoacetylmannosamine in a solution of CD3OD-D2O (5:1, v/v) as monitored by ^1H-NMR.

[2] = Absorption and fluorescence spectroscopy under simulated physiological conditions; type: physicochemical; settings: PBS buffer containing 10% DMSO, pH 7.4
Description: Formation of triazoles 111 and 112 were accompanied by a significant increase in fluorescence intensity with a large Stokes shift into a standard range for coumarin emission (FIG. 16a).
FIG. 16 describes (a) Absorption and Fluorescence emission spectra (λex=330 nm) of 101 (black), 111 (blue) and 112 (red) (45 μM, PBS buffer containing 10% DMSO, pH 7.4). (b) Time course of normalized fluorescence intensity at 435 nm (λex=330 nm) for the ligation reaction of 101 (30 μM) with N-azidoacetylmannosamine (30 μM) in PBS buffer containing 10% DMSO.

[3] = Stability in presence of 3-mercaptopropionic acid by 1H-NMR; type: physicochemical; settings: 25 mM in CDCl3 with 3-mercaptopropionic acid (32 mM), 25° C., 24 h
Description: A potential problematic side reaction of cyclooctynes is the addition with proteinic or endogenous thiols to the corresponding vinyl sulfides. To test whether potential non-specific stainings of 101 and the corresponding triazole 111 may occur due to additions of the SH groups to the triple bond or double bond by proteinic or endogenous thiols, the experiment was performed by incubation of 101 and 111 with 3-mercaptopropionic acid in CDCl3 (FIGS. 25 and 26).
A solution of compound 101 and compound 111 (25 mM in CDCl3) was incubated with a solution of 3-mercaptopropionic acid (32 mM in CDCl3) at room temperature (25° C.).
FIG. 25 show ^1H-NMR spectrum in CDCl3 of compound 101 and 3-mercaptopropionic acid alone, and ^1H-NMR spectrum of compound 101 was treated with 3-mercaptopropionic acid at 25° C. for 0 h, 2 h and 24 h.

[4] = system: CL1-5 cells; assay: Dual fluorescence labeling in cells (SPAAC with CuAAC), confocal microscopy; type: cell-based; settings: CL1-5 cells with Ac4ManNAl and Ac4GlcNAz; 100 μM coumOCT, 0.1 μM AzBOCEt
Description: A dual-labeling experiment was performed using SPAAC in combination with CuAAC for the concurrent fluorescence labeling of two different metabolically incorporated glycoconjugates. Peracetylated N-acetylmannosamine (Ac4ManNAc) and peracetylated N-acetylglucosamine (Ac4GlcNAc) were employed as the control sugars. ManNAc is converted metabolically to sialic acid that is found as a terminal monosaccharide of glycoproteins and glycolipids in cell, whereas GlcNAz is an internal monosaccharide that abundant in the N- and O-linked glycans produced in the endoplasmic reticulum and Golgi. CL1-5 cells were incubated in the presence of both alkyne-containing sugar (Ac4ManNAl) and azido-containing sugar (Ac4GlcNAz) for three days. The cells were stained by SPAAC with coumOCT (for azido sugars), followed by CuAAC with AzBOCEt^6j (for alkynyl sugars), and investigated by confocal microscopy (FIG. 24).
(A) Illustration of the cell labeling experiments using Ac4ManNAl, Ac4GlcNAz, 101 and AzBOCEt. CL1-5 cells were incubated with 100 μM of Ac4ManNAl and Ac4GlcNAz or control sugars (Ac4ManNAc and Ac4GlcNAc) for 3 days, which were treated with 100 μM of probe 101 for 0.5 h under SPAAC conditions, and then incubated with 0.1 μM of AzBOCEt for 1 h under CuAAC conditions. (B) Dual fluorescence imaging in CL1-5 cells. […]

Absorption (λmax, nm) [2]: 336 nm
Stokes shift [2]: 5070 cm⁻¹
Emission (λmax, nm) ([2]; excitation at 330 nm): 405 nm
ε (M^−1cm^−1), extinction coefficient ([2]; measured at 340 nm): 7800 M⁻¹ cm⁻¹
Φf, fluorescence quantum yield ([2]; quinine sulfate (Φf = 0.54 ± 0.03) as standard): 0.011
thiol-yne or thiol-ene addition / stability in the presence of thiols [3]: inactive; also recorded: high stability
Structure (SMILES): O=c1ccc2cc3c(cc2o1)C#CCCCC3 [Compound 101, 6,7,8,9-Tetrahydro-10,11-didehydro-cycloocta[g]chromen-2(2H)-one]
second-order rate constant [1]: 0.010 M⁻¹ s⁻¹
localization of labeled glycoconjugates [4]: shown only in the cytosol

— US10119972B2, “Reactive labelling compounds and uses thereof” (Academia Sinica, priority 2014, dated 2018)
